From patent US11154529B2, “Phosphaplatin liquid formulations” (Phosplatin Therapeutics Inc., priority 2016, dated 2021)

Experiment: Ready-to-use formulation stability at 2-8° C., 5 mg/mL (R,R)-pyrodach-2 in 10 mM Potassium Phosphate Buffer at pH 7.4, 10 mL vials
Assay type: physicochemical
Description: A scalable and commercially viable process for the manufacture of a ready-to-use formulation of (R,R)-pyrodach-2 in 10 mM buffer adjusted to a pH of 7.0-7.5 comprises the steps of: a) preparing a 10 mM aqueous solution of buffer; b) adding sufficient hydroxide base to effect neutralization of the added (R,R)-pyrodach-2 to reach a pH of about 7; c) adding (R,R)-pyrodach-2 and allowing it to dissolve; d) if necessary adding additional hydroxide to adjust the pH into a range of about 7.0-7.5; and e) filtering the solution under sterile conditions, filling the solution into glass vials, and covering it with a stopper and/or a cap. Stability data on two large batches of 5 mg/mL (R,R)-pyrodach-2 in 10 mM potassium phosphate buffer were generated. One such batch at pH=7.2 was evaluated at both 25° C./60% RH and refrigerated (2-8° C.) conditions, with data summarized in Table 4 and Table 5, respectively. […] Similar observations have been made for the ready-to-use liquid formulation at pH7.4, as illustrated in Table 6 and Table 7.
• Transfer 4564.6 mg±0.5 mg of potassium phosphate dibasic, trihydrate to a 2-L volumetric flask. • Fill flask to approximately 75% volume with water, swirl as needed to dissolve all solids. • Volumetrically transfer 32.0 mL of 1N KOH to flask. • Dilute flask to volume with water and mix well. • Record pH of final solution. This is the diluent. • Transfer 7653.1 mg±0.5 mg of (R,R)-pyrodach-2 to a compounding vessel. • Transfer 1500 mL of the diluent to the vessel and stir to dissolve solids. • Record pH of final solution. • Pass entire solution through a 0.22 μm sterile filter membrane into a sterile collection vessel. • Calculate (R,R)-pyrodach-2 solution concentration
To a […] glass beaker equipped with mechanical mixer was add 24645.5 g of sterile water for injection. With agitation 47.03 gm of dibasic potassium phosphate USP was added and the solids allowed to dissolve. To the stirred solution was added 253.8 gm of 1.00 N potassium hydroxide. Sterile water for injection USP (900.0 gm) was used as a rinse to facilitate both additions. With vigorous agitation, (R,R)-pyrodach-2 (201.87 gm) was slowly added and agitation continued until all of the solids dissolved. Sterile water for injection USP (900.0 gm) was used as a rinse to facilitate the addition. The pH was determined to be 6.7. A total of 85 mL of 1.00 N potassium hydroxide was added in 5.0 mL aliquots to adjust the pH to 7.3. The solution was sterile filtered through 0.22μ Millipore Millipack filter and aseptically filled, 10 ml top a vial in 10 mL in 10 cc Wheaton clear molded vails, stoppered with a 20 mm stopper and crimp seal capped.

Q: What does the source list for `O=P1(O)OP(=O)(O)[O][Pt]2([NH][C@@H]3CCCC[C@H]3[NH]2)[O]1` (stereo partly drawn) [(R,R)-pyrodach-2, (R,R)-trans-1,2-cyclohexanediamine-(dihydrogenpyrophosphato)platinum(II)]?
A: (DACH) Pt-diaquo (~RRT 0.3) (1 Month): 0.15%; (DACH) Pt-monoaquo (~RRT 0.7) (1 Month): 1.04%; Assay (Potency) (1 Month): 98.7%; PT-112 Dimer (~RRT 4.0) (1 Month): 0.33%; RRT 0.50 (1 Month): 0.06%; RRT 0.56 (1 Month): 0.10%; RRT 0.68 (1 Month): 0.19%; RRT 0.86 (1 Month): 0.05%; RRT 3.1-3.2 (1 Month): 0.13%; Total Related Substances (1 Month): 2%; pH (1 Month): 7.4; (DACH) Pt-diaquo (~RRT 0.3) (3 Month): 0.14%; (DACH) Pt-monoaquo (~RRT 0.7) (3 Month): 0.92%; Assay (Potency) (3 Month): 99.7%; PT-112 Dimer (~RRT 4.0) (3 Month): 0.37%; RRT 0.50 (3 Month): 0.06%; RRT 0.56 (3 Month): 0.12%; RRT 0.68 (3 Month): 0.11%; RRT 3.1-3.2 (3 Month): 0.25%; Total Related Substances (3 Month): 2%; pH (3 Month): 7.4; (DACH) Pt-diaquo (~RRT 0.3) (6 Month): 0.17%; (DACH) Pt-monoaquo (~RRT 0.7) (6 Month): 0.28%; Assay (Potency) (6 Month): 98.2%; PT-112 Dimer (~RRT 4.0) (6 Month): 0.36%; RRT 0.46 (6 Month): 0.06%; RRT 0.50 (6 Month): 0.18%; RRT 0.56 (6 Month): 0.06%; RRT 0.68 (6 Month): 0.16%; RRT 0.86 (6 Month): 0.05%; RRT 3.1-3.2 (6 Month): 0.38%; Total Related Substances (6 Month): 2%; pH (6 Month): 7.4; Particulate Matter (Light Obscuration) (6 Month, first value): 83 particles particles per container; Particulate Matter (Light Obscuration) (6 Month, second value): 1 particles particles per container; (DACH) Pt-diaquo (~RRT 0.3) (9 Month): 0.14%; (DACH) Pt-monoaquo (~RRT 0.7) (9 Month): 0.81%; Assay (Potency) (9 Month): 100.2%; PT-112 Dimer (~RRT 4.0) (9 Month): 0.33%; RRT 0.46 (9 Month): 0.05%; RRT 0.50 (9 Month): 0.18%; RRT 0.56 (9 Month): 0.07%; RRT 0.68 (9 Month): 0.08%; RRT 0.86 (9 Month): 0.05%; RRT 3.1-3.2 (9 Month): 0.39%; RRT 3.58 (9 Month): 0.07%; Total Related Substances (9 Month): 2%; pH (9 Month): 7.4; (DACH) Pt-diaquo (~RRT 0.3) (12 Month): 0.12%; (DACH) Pt-monoaquo (~RRT 0.7) (12 Month): 0.96%; Assay (Potency) (12 Month): 98.7%; PT-112 Dimer (~RRT 4.0) (12 Month): 0.34%; RRT 0.50 (12 Month): 0.15%; RRT 0.56 (12 Month): 0.16%; RRT 0.68 (12 Month): 0.11%; RRT 0.86 (12 Month): 0.05%; RRT 3.1-3.2 (12 Month): 0.48%; Total Related Substances (12 Month): 2%; pH (12 Month): 7.4; Particulate Matter (Light Obscuration) (12 Month, first value): 124 particles per container; Particulate Matter (Light Obscuration) (12 Month, second value): 6 particles particles per container; (DACH) Pt-diaquo (~RRT 0.3) (15 Month): 0.14%; (DACH) Pt-monoaquo (~RRT 0.7) (15 Month): 0.94%; Assay (Potency) (15 Month): 98.0%; PT-112 Dimer (~RRT 4.0) (15 Month): 0.34%; RRT 0.50 (15 Month): 0.16%; RRT 0.56 (15 Month): 0.17%; RRT 0.68 (15 Month): 0.12%; RRT 0.86 (15 Month): 0.06%; RRT 3.1-3.2 (15 Month): 0.59%; RRT 3.58 (15 Month): 0.07%; Total Related Substances (15 Month): 3%; pH (15 Month): 7.4; (DACH) Pt-diaquo (~RRT 0.3) (18 Month): 0.13%; (DACH) Pt-monoaquo (~RRT 0.7) (18 Month): 0.76%; Assay (Potency) (18 Month): 97.5%; PT-112 Dimer (~RRT 4.0) (18 Month): 0.33%; RRT 0.46 (18 Month): 0.09%; RRT 0.50 (18 Month): 0.26%; RRT 0.56 (18 Month): 0.06%; RRT 0.68 (18 Month): 0.08%; RRT 0.86 (18 Month): 0.05%; RRT 3.1-3.2 (18 Month): 0.58%; RRT 3.58 (18 Month): 0.10%; Total Related Substances (18 Month): 2%; pH (18 Month): 7.4; (DACH) Pt-diaquo (~RRT 0.3) (21 Month): 0.12%; (DACH) Pt-monoaquo (~RRT 0.7) (21 Month): 1.07%; Assay (Potency) (21 Month): 97.4%; PT-112 Dimer (~RRT 4.0) (21 Month): 0.35%; RRT 0.46 (21 Month): 0.07%; RRT 0.50 (21 Month): 0.23%; RRT 0.56 (21 Month): 0.12%; RRT 0.68 (21 Month): 0.14%; RRT 0.86 (21 Month): 0.05%; RRT 3.1-3.2 (21 Month): 0.67%; RRT 3.58 (21 Month): 0.10%; Total Related Substances (21 Month): 3%; pH (21 Month): 7.4; (DACH) Pt-diaquo (~RRT 0.3) (24 Month): 0.11%; (DACH) Pt-monoaquo (~RRT 0.7) (24 Month): 0.93%; Assay (Potency) (24 Month): 96.5%; PT-112 Dimer (~RRT 4.0) (24 Month): 0.33%; RRT 0.46 (24 Month): 0.08%; RRT 0.50 (24 Month): 0.25%; RRT 0.56 (24 Month): 0.12%; RRT 0.68 (24 Month): 0.11%; RRT 0.86 (24 Month): 0.06%; RRT 3.1-3.2 (24 Month): 0.65%; RRT 3.58 (24 Month): 0.14%; Total Related Substances (24 Month): 3%; pH (24 Month): 7.4; (DACH) Pt-diaquo (~RRT 0.3) (Initial): 0.16%; (DACH) Pt-monoaquo (~RRT 0.7) (Initial): 0.84%; Assay (Potency) (Initial): 98.1%; PT-112 Dimer (~RRT 4.0) (Initial): 0.34%; RRT 0.50 (Initial): 0.06%; RRT 0.56 (Initial): 0.08%; RRT 0.68 (Initial): 0.09%; RRT 3.1-3.2 (Initial): 0.11%; Total Related Substances (Initial): 2%; pH (Initial): 7.4; Particulate Matter (Light Obscuration) (Initial, first value): 30 particles particles per container; Particulate Matter (Light Obscuration) (Initial, second value): 11 particles particles per container
